Patent US12338256B2, “Aza-tetracyclic oxazepine compounds and uses thereof” (Genentech, Inc., priority 2022, dated 2025)
Where two headings read alike, the source gives them in different places.

Experiments:
[1] = tested on: H1975 (KRAS wild type human lung adenocarcinoma cell line); assay: KRAS 3D-Cell Proliferation Assay, H1975 (Example 503); assay type: cell-based; settings: Homo sapiens, NCI-H1975, 168 h, H1975 3D culture, 7 days, CellTiter-Glo 3D; read-out: Prolif H1975 3D ATP IC50
Summary of the method: (§1)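 IC50s come from a 4-parameter Hill fit of luminescence (CellTiter-Glo 3D) normalized between DMSO (0%) and 1 μM staurosporine (100%). Cells in low-attachment 3D culture, RPMI-1640 with 10% FBS, received serial compound dilutions (0.3% DMSO) after overnight and were incubated 7 days at 37 °C.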

[2] = tested on: HPAC (homozygous mutant KRAS G12D human pancreatic cell line); assay: KRAS 3D-Cell Proliferation Assay, HPAC (Example 503); assay type: cell-based; settings: Homo sapiens, 168 h, HPAC 3D culture, 7 days, CellTiter-Glo 3D, read-out: Prolif HPAC 3D ATP IC50
Summary of the method: as §1

SMILES | IC50 [1] [nM] | IC50 ([2]; HPAC) [nM] | IC50 [2] [nM]
Cc1c(Cl)c(N)cc(-c2nc3c4c(nc(OC[C@@]56CCCN5C[C@H](F)C6)nc4c2Cl)N2C[C@H]4CC[C@H](N4)[C@H]2[C@H](C)O3)c1C(F)(F)F [Compound 241, 2-Chloro-5-((5S,5aS,6S,9R)-1-chloro-12-(((2R,7aS)-2-fluorotetrahydro-1H-pyrrolizin-7a(5H)-yl)methoxy)-5-methyl-5a,6,7,8,9,10-hexahydro-5H-4-oxa-3,10a,11,13,14-pentaaza-6,9-methanonaphtho[1,8-ab]heptalen-2-yl)-3-methyl-4-(trifluoromethyl)aniline] | 1200 | 16.2 | –
Cc1c(F)c(N)cc(-c2nc3c4c(nc(OC[C@@]56CCCN5C[C@H](F)C6)nc4c2F)N2C[C@H]4CC[C@H](N4)[C@H]2[C@H](C(F)(F)F)O3)c1CC(F)F [Compound 250, 4-(2,2-Difluoroethyl)-2-fluoro-5-((5R,5aS,6S,9R)-1-fluoro-12-(((2R,7aS)-2-fluorotetrahydro-1H-pyrrolizin-7a(5H)-yl)methoxy)-5-(trifluoromethyl)-5a,6,7,8,9,10-hexahydro-5H-4-oxa-3,10a,11,13,14-pentaaza-6,9-methanonaphtho[1,8-ab]heptalene-2-yl)-3-methylaniline] | 994 | 16.9 | –
Cc1nc(N)c(F)c(-c2nc3c4c(nc(OC[C@@]56CCCN5C[C@H](F)C6)nc4c2F)N2C[C@H]4CC[C@H](N4)[C@H]2[C@H](C(F)(F)F)O3)c1C(F)(F)F [Compound 256, 3-Fluoro-4-((5R,5aS,6S,9R)-1-fluoro-12-(((2R,7aS)-2-fluorotetrahydro-1H-pyrrolizin-7a(5H)-yl)methoxy)-5-(trifluoromethyl)-5a,6,7,8,9,10-hexahydro-5H-4-oxa-3,10a,11,13,14-pentaaza-6,9-methanonaphtho[1,8-ab]heptalen-2-yl)-6-methyl-5-(trifluoromethyl)pyridin-2-amine] | 93.4 | – | 13.9
Cc1c(F)c(N)cc(-c2nc3c4c(nc(OCC5(CN6CC6(C)C)CC5)nc4c2F)N2C[C@H]4CC[C@H](N4)[C@H]2[C@H](C)O3)c1C(F)(F)F (stereo partly drawn) [Compound 259, 5-((5S,5aS,6S,9R)-12-((1-((2,2-Dimethylaziridin-1-yl)methyl)cyclopropyl)methoxy)-1-fluoro-5-methyl-5a,6,7,8,9,10-hexahydro-5H-4-oxa-3,10a,11,13,14-pentaaza-6,9-methanonaphtho[1,8-ab]heptalen-2-yl)-2-fluoro-3-methyl-4-(trifluoromethyl)aniline] | 1970 | 12.3 | –
C[C@@H]1Oc2nc(-c3cc(N)nc(C(F)F)c3C(F)(F)F)c(F)c3nc(OC[C@@]45CCCN4C[C@H](F)C5)nc(c23)N2C[C@H]3CC[C@H](N3)[C@@H]12 [Compound 260, 6-(Difluoromethyl)-4-((5S,5aS,6S,9R)-1-fluoro-12-(((2R,7aS)-2-fluorotetrahydro-1H-pyrrolizin-7a(5H)-yl)methoxy)-5-methyl-5a,6,7,8,9,10-hexahydro-5H-4-oxa-3,10a,11,13,14-pentaaza-6,9-methanonaphtho[1,8-ab]heptalen-2-yl)-5-(trifluoromethyl)pyridin-2-amine] | 3250 | 41.5 | –
Cc1nc(N)cc(-c2nc3c4c(nc(OCC56C[C@@H](F)CN5C[C@H](F)C6)nc4c2F)N2C[C@H]4CC[C@H](N4)[C@H]2[C@H](C(F)(F)F)O3)c1C(F)(F)F [Compound 261, 4-((5R,5aS,6S,9R)-12-(((2R,6R)-2,6-Difluorotetrahydro-1H-pyrrolizin-7a(5H)-yl)methoxy)-1-fluoro-5-(trifluoromethyl)-5a,6,7,8,9,10-hexahydro-5H-4-oxa-3,10a,11,13,14-pentaaza-6,9-methanonaphtho[1,8-ab]heptalen-2-yl)-6-methyl-5-(trifluoromethyl)pyridin-2-amine] | 6100 | 107 | –
Cc1nc(N)cc(-c2nc3c4c(nc(OCC5(CN6CC7CC(C6)O7)CC5)nc4c2F)N2C[C@H]4CC[C@H](N4)[C@H]2[C@H](C)O3)c1C(F)(F)F [Compound 265, 4-((5S,5aS,6S,9R)-12-((1-((6-oxa-3-azabicyclo[3.1.1]heptan-3-yl)methyl)cyclopropyl)methoxy)-1-fluoro-5-methyl-5a,6,7,8,9,10-hexahydro-5H-4-oxa-3,10a,11,13,14-pentaaza-6,9-methanonaphtho[1,8-ab]heptalene-2-yl)-6-methyl-5-(trifluoromethyl)pyridin-2-amine] | 6240 | 2.24 | –
Cc1nc(N)cc(-c2nc3c4c(nc(OCC5(CN6CC[C@H]7OCC[C@H]76)CC5)nc4c2F)N2C[C@H]4CC[C@H](N4)[C@H]2[C@H](C)O3)c1C(F)(F)F [Compound 268, 4-((5S,5aS,6S,9R)-1-fluoro-12-((1-(((3aR,6aR)-hexahydro-4H-furo[3,2-b]pyrrol-4-yl)methyl)cyclopropyl)methoxy)-5-methyl-5a,6,7,8,9,10-hexahydro-5H-4-oxa-3,10a,11,13,14-pentaaza-6,9-methanonaphtho[1,8-ab]heptalene-2-yl)-6-methyl-5-(trifluoromethyl)pyridin-2-amine] | 1700 | 2.17 | –
COCC1(F)CCN(CC2(COc3nc4c5c(nc(-c6cc(N)nc(C)c6C(F)(F)F)c(F)c5n3)O[C@@H](C)[C@@H]3[C@@H]5CC[C@H](CN43)N5)CC2)C1 (stereo partly drawn) [Compound 270, 4-((5S,5aS,6S,9R)-1-fluoro-12-((1-((3-fluoro-3-(methoxymethyl)pyrrolidin-1-yl)methyl)cyclopropyl)methoxy)-5-methyl-5a,6,7,8,9,10-hexahydro-5H-4-oxa-3,10a,11,13,14-pentaaza-6,9-methanonaphtho[1,8-ab]heptalen-2-yl)-6-methyl-5-(trifluoromethyl)pyridin-2-amine] | 2480 | 2.52 | –
COC1(C(F)F)CN(CC2(COc3nc4c5c(nc(-c6cc(N)nc(C)c6C(F)(F)F)c(F)c5n3)O[C@@H](C)[C@@H]3[C@@H]5CC[C@H](CN43)N5)CC2)C1 [Compound 271, 4-((5S,5aS,6S,9R)-12-((1-((3-(difluoromethyl)-3-methoxyazetidin-1-yl)methyl)cyclopropyl)methoxy)-1-fluoro-5-methyl-5a,6,7,8,9,10-hexahydro-5H-4-oxa-3,10a,11,13,14-pentaaza-6,9-methanonaphtho[1,8-ab]heptalene-2-yl)-6-methyl-5-(trifluoromethyl)pyridin-2-amine] | 10900 | 4.49 | –
COC1(CF)CN(CC2(COc3nc4c5c(nc(-c6cc(N)nc(C)c6C(F)(F)F)c(F)c5n3)O[C@@H](C)[C@@H]3[C@@H]5CC[C@H](CN43)N5)CC2)C1 [Compound 272] | 5480 | 4.58 | –
COC1(C)CN(CC2(COc3nc4c5c(nc(-c6cc(N)nc(C)c6C(F)(F)F)c(F)c5n3)O[C@@H](C)[C@@H]3[C@@H]5CC[C@H](CN43)N5)CC2)C1 [Compound 273, 4-((5S,5aS,6S,9R)-1-fluoro-12-((1-((3-methoxy-3-methylazetidin-1-yl)methyl)cyclopropyl)methoxy)-5-methyl-5a,6,7,8,9,10-hexahydro-5H-4-oxa-3,10a,11,13,14-pentaaza-6,9-methanonaphtho[1,8-ab]heptalene-2-yl)-6-methyl-5-(trifluoromethyl)pyridin-2-amine] | 3190 | 6.53 | –
